Experiments:
[1] = Batch adsorption of S-59 and photoproducts from illuminated PC, HPLC (Examples 27, 28); assay type: physicochemical
Protocol: The peak corresponding to S-59 is present in the chromatograms representing non-illuminated S-59 (top) and illuminated S-59 (middle) at a retention time of approximately 12 minutes. The other peaks in the chromatogram representing illuminated S-59 (middle) (besides the injection peak at about 3 minutes) correspond to S-59 photoproducts formed during illumination. Note that the peaks appear at time (t)=18 minutes and t=20 minutes are plasma species and are not related to S-59. The peaks which remain in the bottom panel are not S-59 photoproducts, so removal of S-59 and photoproducts was essentially complete in this case as indicated by HPLC (i.e., non-detectable by HPLC).

platelets = assay: In vitro platelet function after photochemical treatment and 8-hour RD treatment (Tables O, P); assay type: cell-based, human; conditions: RD 8 hours; for pH: T: 150 μM S-59, 3 Joules/cm^2 UVA; for (%) Aggregation / (%) HSR / (%) Microvesicle Formation / (%) p-Selectin-Positive / ATP / Bicarbonate / Glucose / Lactate / Morphology (Out Of 400) / Platelet Shape Change / Platelet count / pCO2 / pO2: T: S-59, UVA
Protocol: Two ABO-matched single donor PCs containing 2−5×10^11 platelets in approximately 300 mL of 35% plasma and 65% PAS III were pooled and redivided into two identical units in PL 2410 Plastic containers (Baxter). One unit (the control) was immediately placed on a platelet shaker and stored at approximately 22° C. The other unit (the test) was treated with 150 μM S-59 and 3 Joules/cm^2 UVA. After treatment, the platelets suspension was transferred into a second PL 2410 Plastic container containing a RD. Contact between platelets and the RD occurred for a period of approximately 8 hours, then the platelet suspension was transferred to a new PL 2410 Plastic container for storage. The time of blood donation was defined as day 0. Treatment with S-59, UVA (320-400 nm), and the RD was performed on day 1. Six replicate experiments were carried out, each with a different pool of two ABO-matched single-donor platelet concentrates.
For the evaluation of in vitro platelet function, platelet samples were withdrawn from both the control and test units before treatment and after treatment on days 2, 5, and 7. The following parameters were analyzed: pH, pO2, pCO2, bicarbonate concentration, platelet count, morphology, aggregation, platelet shape change, hypotonic shock response, lactate production, glucose consumption, ATP secretion, p-selectin expression, and microvesicle formation. Several of these assays, including pH, morphology score, platelet shape change, and hypotonic shock response, have been reported in the literature to correlate with in- vivo post-transfusion recovery and survival. The Student's paired t-test was used for statistical analysis.
For platelet count measurement, the volume of the control unit is approximately 5% less than the volume of the paired test unit; thus, for statistical analysis the platelet count per μL for the test unit was adjusted by a factor of […]. The pH of the treated platelets was maintained at 6.91±0.05 after seven days of storage following treatment.

For `Cc1oc2c(C)c3oc(=O)cc(C)c3cc2c1COCCN` [Compound 2, 4′-(4-amino-2-oxa)butyl-4,5′,8-trimethylpsoralen], the “removal of S-59” value ([1]; at 2 hours, Amberlite XAD-4 10 g/300 mL, illuminated platelets in 35% plasma/[…]% PAS III, HPLC) was “greater than 99%”, the “S-59 and low molecular weight photoproducts adsorbed from PCs” value ([1]; batch devices, appropriate adsorbents) was “greater than 99%” and the pH (platelets; Day 2) was 6.94 ± 0.05. For the same compound, the pH (platelets; Day 5) was 6.92 ± 0.06, the pH (platelets; Day 7) was 6.91 ± 0.05 and the “(%) Aggregation” value (platelets; Day 2) was 88 ± 4%. The “(%) HSR” value (platelets; Day 2) was 52 ± 5 %, the “(%) Microvesicle Formation” value (platelets; Day 2) was 0.9 ± 0.2% and the “(%) p-Selectin-Positive” value (platelets; Day 2) was 49 ± 5 %. For the same compound, the ATP (platelets; Day 2) was 1.0 ± 0.1 Nmoles Per 10^8 Platelets, the Bicarbonate (platelets; Day 2) was 6.3 ± 0.3 mM and the Glucose (platelets; Day 2) was 4.6 ± 0.9 mM. The Lactate (platelets; Day 2) was 4.7 ± 1.2 mM, the “Morphology (Out Of 400)” value (platelets; Day 2) was 302 ± 16 and the “Platelet Shape Change” value (platelets; Day 2) was 1.0 ± 0.1. For the same compound, the Platelet count (platelets; Day 2) was 1545 ± 247 × 10^−3/μL, the pCO2 (platelets; Day 2) was 29.2 ± 3.8 mm Hg and the pO2 (platelets; Day 2) was 68.3 ± 19.4 mm Hg. The “(%) Aggregation” value (platelets; Day 5) was 81 ± 7%, the “(%) HSR” value (platelets; Day 5) was 45 ± 3% and the “(%) Microvesicle Formation” value (platelets; Day 5) was 0.8 ± 0.2%. The “(%) p-Selectin-Positive” value (platelets; Day 5) was 58 ± 5%, the ATP (platelets; Day 5) was 0.7 ± 0.2 Nmoles Per 10^8 Platelets and the Bicarbonate (platelets; Day 5) was 4.8 ± 0.5 mM. For the same compound, the Glucose (platelets; Day 5) was 2.1 ± 1.1 mM, the Lactate (platelets; Day 5) was 8.5 ± 1.6 mM and the “Morphology (Out Of 400)” value (platelets; Day 5) was 290 ± 20. The “Platelet Shape Change” value (platelets; Day 5) was 0.9 ± 0.1, the Platelet count (platelets; Day 5) was 1525 ± 246 × 10^−3/μL and the pCO2 (platelets; Day 5) was 23.7 ± 3.5 mm Hg. For the same compound, the pO2 (platelets; Day 5) was 84.8 ± 22.5 mm Hg, the “(%) Aggregation” value (platelets; Day 7) was 81 ± 4% and the “(%) HSR” value (platelets; Day 7) was 48 ± 8%. The “(%) Microvesicle Formation” value (platelets; Day 7) was 1.7 ± 1.7%, the “(%) p-Selectin-Positive” value (platelets; Day 7) was 60 ± 7% and the ATP (platelets; Day 7) was 0.6 ± 0.2 Nmoles Per 10^8 Platelets. For the same compound, the Bicarbonate (platelets; Day 7) was 4.2 ± 0.7 mM, the Glucose (platelets; Day 7) was 0.8 ± 0.8 mM and the Lactate (platelets; Day 7) was 10.8 ± 1.3 mM. The “Morphology (Out Of 400)” value (platelets; Day 7) was 274 ± 12, the “Platelet Shape Change” value (platelets; Day 7) was 0.9 ± 0.3 and the Platelet count (platelets; Day 7) was 1500 ± 219 × 10^−3/μL. The pCO2 (platelets; Day 7) was 20.7 ± 2.4 mm Hg and the pO2 (platelets; Day 7) was 88.8 ± 20.2 mm Hg.

From patent US6544727B1, “Methods and devices for the removal of psoralens from blood products” (Cerus Corporation, priority 1995, dated 2003)
